The text below walks through data of patent US20260191845A1, “PYRIDINE-2-THIOL 1-OXIDE DERIVATIVES AND THEIR USE FOR TREATMENT OF MAMMALIAN INFECTIONS CAUSED BY MYCOBACTERIUM OR FUNGI” (priority 2022, published 2026).

Experiment [1] has as its system IC2 M. tuberculosis MDR clinical isolate. The experiment can be described thus: REMA MIC90, broad spectrum of microorganisms. Format: cell-based. The conditions noted are these: Mycobacterium tuberculosis, read-out: MIC to Compound 2.
For experiment [2], the system named is IC1 M. tuberculosis MDR clinical isolate. The experiment is described as follows: REMA MIC90, broad spectrum of microorganisms. It is filed as cell-based. The conditions noted are these: Mycobacterium tuberculosis, read-out: MIC to Compound 2.

For the compound `CCOC(=O)c1ccc([S-])[n+]([O-])c1.[Na+]` [Compound 2, Sodium 5-(ethoxycarbonyl)pyridine-2-thiolate 1-oxide], the MIC in experiment [1] and in experiment [2] was 25 µg/mL each time.
